In article PMC10126473 (Frontiers in Pharmacology, 2023):
Where two headings read alike, the source gives them in different places.

Tests used:
[1] = Plasma protein binding, equilibrium dialysis (RED device); format: in vitro ADME, human; conditions: read-out: Fup (unbound fraction in plasma)
Experimental: Plasma protein binding was determined with equilibrium dialysis method using the Rapid Equilibration Dialysis (RED) device (Thermo Fisher Catalog # 90006). The assay was performed using manufacturer’s procedures. Briefly, plasma spiked with a test compound (5 µM) was added to the plasma chamber of the RED device. Blank potassium phosphate buffer (100 mM) was added to the buffer chamber of the RED device and the plate was incubated at 37°C. Aliquots of the buffer and the plasma were taken at 0 and 4 h, and the concentrations of free and bound test compounds were determined using the previously described LC-MS method ([Shah et al., 2016]).

[2] = Mouse PK and tissue distribution study (non-compartmental analysis); conditions: male, C57BL/6, mouse, in vivo; for Cmax: Cmax Obs
Experimental: The in-life study (Animal Study Protocol Number: NIH ORS-51) was conducted at the NIH Animal Facility by the Division of Veterinary Resources (DVR, Bethesda, MD). In this study, 25–35 g male C57BL/6 mice (Charles River Laboratories, Frederick, MD) were used. For the IV groups, 66 mice (33 mice per dosing group, 3 mice per timepoint) were used for a single bolus IV dose of 3 or 10 mg/kg of PDN via tail vein injection. […] The IV and PO doses were selected to obtain a complete concentration profile in plasma and tissues, based on a preliminary study. Animals were not fasted in this study. […] All dosing solutions were freshly prepared on the day of dosing. At designated time points, blood samples were collected, and mice were euthanized with CO2 in accordance with NIH ARAC Guidelines after blood collection. The death was ensured by cervical dislocation or transthoracic puncture. Lung, liver, adipose, brain, heart, small intestine, kidney, skeletal muscle, and spleen samples were obtained from mice. […] Tissue samples were rinsed with cold saline, dried on filtrate paper, weighed, and snap frozen by placing into dry ice after collection. All samples were stored at −80°C until the analysis. All blood samples were collected in K2EDTA tubes and centrifuged at 3000 g for 10 min at 4°C to obtain plasma. Plasma samples were transferred to tubes preloaded with NaF (final concentration at 5 mM in 200 µL plasma) and stored at −80°C until analysis.
For fat tissue, an additional 3-fold volume of acetonitrile was added to the water homogenate and was vortexed in a shaker for another 30 min.
A 10 μ aliquot of samples, blank controls (blank plasma or tissue homogenates), quality controls (QC), and standards were added into 200 μ acetonitrile solution with 100 ng/mL tolbutamide (internal standard, IS). All samples were then thoroughly shaken for 5 min to precipitate proteins. The samples were centrifuged at 3000 rpm and 4°C for 30 min. The supernatant was injected for UPLC-MS/MS analysis.
The mobile phase consisted of 0.1% formic acid in water (A) and 0.1% formic acid in acetonitrile (B), the flow rate was 600 μL/min. […] All analyses were carried out using a Waters Acquity I-Class UPLC interfaced with a Waters Xevo TQ-S mass spectrometer. The mass spectrometer multiple reaction monitoring (MRM) experiment was operated with an ESI source at negative mode with spray voltage of 1 kV, and temperature of 600°C. Both Q1 and Q3 were set at unit resolution. […] The correlation coefficients of the calibration curves were all greater than 0.99. […] The linear range, precision and accuracy of QCs in various tissues and plasma are shown in Supplementary Table S1 and Supplementary Table S2.
The area under the concentration vs. time curve (AUC) was calculated using the linear trapezoidal method. The terminal rate constant (λ) was obtained from the slope of at least three data points of the apparent terminal phase of the log linear concentration vs. time curve. AUC0–∞ was estimated as the sum of the AUC0–t (where t is the time of the last measurable concentration) and Ct/λ. […] Bioavailability (F) was calculated using ratios of dose-normalized AUC of PO and IV administration.

## O=C(Nc1ccc([N+](=O)[O-])cc1Cl)c1cc(Cl)ccc1OC(=O)N1CCNCC1 [PDN]
[1]; human and rodent (rodent predicted), rodent (predicted) and human plasma
  fraction unbound at 4 h, 5 µM: 0.12 to 0.15
[1]; human, human plasma, experimental
  fraction unbound at 4 h, 5 µM: 0.152
[2]
  Kp: 8 to 44
[2]; iv, 3 mg/kg
  AUC(0-inf): 1190 ng·h/mL
[2]; iv, 3 mg/kg, CLp Obs, mice, IV 3 mg/kg PDN, plasma
  clearance: 1.05 mL/min
[2]; iv, 3 mg/kg, Vdss Obs, mice, IV 3 mg/kg PDN, plasma
  Vd: 0.28 L
[2]; iv, 3 mg/kg, t1/2 Obs, mice, IV 3 mg/kg PDN, adipose
  half-life: 2.78 h
[2]; iv, 3 mg/kg, t1/2 Obs, mice, IV 3 mg/kg PDN, brain
  half-life: 2.23 h
[2]; iv, 3 mg/kg, t1/2 Obs, mice, IV 3 mg/kg PDN, heart
  half-life: 1.71 h
[2]; iv, 3 mg/kg, t1/2 Obs, mice, IV 3 mg/kg PDN, intestine
  half-life: 2.69 h
[2]; iv, 3 mg/kg, t1/2 Obs, mice, IV 3 mg/kg PDN, kidney
  half-life: 3.1 h
[2]; iv, 3 mg/kg, t1/2 Obs, mice, IV 3 mg/kg PDN, lung
  half-life: 3.09 h
[2]; iv, 3 mg/kg, t1/2 Obs, mice, IV 3 mg/kg PDN, muscle
  half-life: 1.91 h
[2]; iv, 3 mg/kg, t1/2 Obs, mice, IV 3 mg/kg PDN, plasma
  half-life: 3.07 h
[2]; iv, 3 mg/kg, t1/2 Obs, mice, IV 3 mg/kg PDN, spleen
  half-life: 3.44 h
[2]; iv, 10 mg/kg
  AUC(0-inf): 4100 ng·h/mL
[2]; iv, 10 mg/kg, CLp Obs, mice, IV 10 mg/kg PDN, plasma
  clearance: 1.02 mL/min
[2]; iv, 10 mg/kg, Vdss Obs, mice, IV 10 mg/kg PDN, plasma
  Vd: 0.31 L
[2]; iv, 10 mg/kg, t1/2 Obs, mice, IV 10 mg/kg PDN, brain
  half-life: 3.39 h
[2]; iv, 10 mg/kg, t1/2 Obs, mice, IV 10 mg/kg PDN, heart
  half-life: 2.86 h
[2]; iv, 10 mg/kg, t1/2 Obs, mice, IV 10 mg/kg PDN, intestine
  half-life: 3.78 h
[2]; iv, 10 mg/kg, t1/2 Obs, mice, IV 10 mg/kg PDN, kidney
  half-life: 4.78 h
[2]; iv, 10 mg/kg, t1/2 Obs, mice, IV 10 mg/kg PDN, liver
  half-life: 3.6 h
[2]; iv, 10 mg/kg, t1/2 Obs, mice, IV 10 mg/kg PDN, lung
  half-life: 3.51 h
[2]; iv, 10 mg/kg, t1/2 Obs, mice, IV 10 mg/kg PDN, muscle
  half-life: 4.65 h
[2]; iv, 10 mg/kg, t1/2 Obs, mice, IV 10 mg/kg PDN, plasma
  half-life: 3.52 h
[2]; iv, 10 mg/kg, t1/2 Obs, mice, IV 10 mg/kg PDN, spleen
  half-life: 3.24 h
[2]; iv, 10 mg/kg, t1/2 in all other tissues, mice, IV 3 and 10 mg/kg PDN
  half-life: 1.7 to 4.8 h
[2]; iv, 10 mg/kg, terminal t1/2 in plasma, mice, IV 3 and 10 mg/kg PDN
  half-life: 3.1 to 3.5 h
[2]; iv, 10 mg/kg, total plasma clearance (CLp), mice, IV 3 and 10 mg/kg PDN
  clearance: 1.02 to 1.05 mL/min
[2]; iv, 10 mg/kg, volume of distribution at steady-state (Vdss), mice, IV 3 and 10 mg/kg PDN
  Vd: 0.28 to 0.31 L
[2]; po, 10 mg/kg
  AUC(0-inf): 3520 ng·h/mL
  CL/F: 1.18 mL/min
  Vd/F: 0.33 L
[2]; po, 10 mg/kg, mice, PO 10 mg/kg PDN, adipose
  Cmax: 547 ng/g
[2]; po, 10 mg/kg, mice, PO 10 mg/kg PDN, brain
  Cmax: 715 ng/g
[2]; po, 10 mg/kg, mice, PO 10 mg/kg PDN, heart
  Cmax: 3040 ng/g
[2]; po, 10 mg/kg, mice, PO 10 mg/kg PDN, intestine
  Cmax: 15400 ng/g
[2]; po, 10 mg/kg, mice, PO 10 mg/kg PDN, kidney
  Cmax: 5860 ng/g
[2]; po, 10 mg/kg, mice, PO 10 mg/kg PDN, liver
  Cmax: 240 ng/g
[2]; po, 10 mg/kg, mice, PO 10 mg/kg PDN, lung
  Cmax: 22600 ng/g
[2]; po, 10 mg/kg, mice, PO 10 mg/kg PDN, muscle
  Cmax: 1120 ng/g
[2]; po, 10 mg/kg, mice, PO 10 mg/kg PDN, plasma
  Cmax: 606 ng/mL
[2]; po, 10 mg/kg, mice, PO 10 mg/kg PDN, spleen
  Cmax: 8080 ng/g
[2]; po, 10 mg/kg, F (bioavailability) Obs, mice, PO 10 mg/kg PDN
  bioavailability: 85.6%
